Results reported in PMC6273578, “Design, Synthesis and Biological Evaluation of Benzohydrazide Derivatives Containing Dihydropyrazoles as Potential EGFR Kinase Inhibitors” (Molecules, 2016).
Read-outs that look alike come from different tables or passages of the source.

Assays:
EGFR = settings: read-out: EGFR inhibitory activity IC50, cited from earlier work
A549 cells = experiment: MTT antiproliferative assay, A549; type: cell-based, human; settings: read-out: In vitro antiproliferative activity IC50, A549
Description: (§1) IC50 values of the test compounds against A549, MCF-7, Hela and HepG2 cells were obtained from State Key Laboratory of Pharmaceutical Biotechnology, Nanjing University, and were determined by a standard (MTT)-based colorimetric assay (Beyotime Inst. Biotech., Nanjing, China). Tumor cell lines were grown to mid-log phase and then diluted to […] making sure they were seeded in 96-well plates (Philas, Nanjing, China) at a density of 5 × 10^3–1 × 10^4 cells per well. The outer wells containing 1 × PBS solution of the plate are not used for the assay to avoid the possibility of edge effects. The plate was incubated at 37 °C in a 5% CO2 incubator in DMEM containing 10% fetal bovine serum (FBS, Gibco, Waltham, MA, USA) for 24 h. Then, we added a 100-μL series concentration of drug-containing medium into the wells to maintain the final concentration of drug as 100, 10, 1 and 0.1 μmol/L. After 12 h, cell survival was determined by the addition of a MTT (3-(4,5-dimethylthiazol-2-yl)-2,5-diphenyl trtrazolium bromide) solution (10 μL of 5 mg/mL MTT in 1 × PBS). We waited for 4 h proliferation, discarded the medium and quickly added 150 μL DMSO per well, shaking the plates well for 10 min to ensure complete dissolution. Optical absorbance was measured at 570 nm on a microplate reader (Bio-Rad, Hercules, CA, USA). Survival ratios are expressed in percentages with respect to untreated cells. The experiments were replicated at least three times to verify the methodology reproducibility when using the above-mentioned conditions.

MCF-7 cells = experiment: MTT antiproliferative assay, MCF-7; type: cell-based, human
Description: as §1

HeLa cells = experiment: MTT antiproliferative assay, HeLa; type: cell-based, human; settings: read-out: In vitro antiproliferative activity IC50, HeLa
Description: as §1

HepG2 cells = experiment: MTT antiproliferative assay, HepG2; type: cell-based, human; settings: read-out: In vitro antiproliferative activity IC50, HepG2
Description: as §1

[1] = system: 293T human kidney epithelial cells; experiment: Cytotoxicity test (MTT) on 293T cells; settings: read-out: median cytotoxic concentration CC50; 293T cells, MTT assay, 24 h
Description: (§2) The cytotoxic activity in vitro was measured by the colorimetric MTT assay. […] For the cytotoxicity assay, 20 μL of MTT (5 mg/mL) was added per well 4 h before the end of the incubation. After removing the supernatant, 200 μL DMSO was added to dissolve the formazan crystals. The absorbance at λ 570 nm was read on an LX300 Epson Diagnostic microplate reader, untreated cells were used as negative controls.

[2] = target: epidermal growth factor receptor (EGFR) (Homo sapiens, UniProt P00533); experiment: EGFR kinase inhibition, solid-phase ELISA assay
Description: All these newly synthesized compounds were evaluated for their inhibitory activities against EGFR kinases using a solid-phase ELISA assay.
EGFR tyrosine kinase activity was determined by an enzyme linked-immunosorbent assay (ELISA) in 96-well plates precoated in a 10 mL reaction volume including 4 mL diluted test compounds, 4 mL substrate and 2 mL ATP. […] The plates were then aspirated and washed twice with 200 mL 0.9% (w/v) NaCl, and incorporation of Pi was determined with an LX300 Epson Diagnostic microplate reader. […] The experiments were replicated at least three times to verify the methodology reproducibility when using the above-mentioned conditions.

[3] = Cytotoxicity test (MTT) on 293T cells; settings: human, 293T human kidney epithelial cells
Description: as §2

[4] = read-out: In vitro antiproliferative activity IC50, MCF-7
[5] = read-out: Inhibition activity IC50 against EGFR, solid-phase ELISA assay
[6] = Homo sapiens, MCF7, read-out: In vitro antiproliferative activity IC50, MCF-7

epidermal growth factor receptor (EGFR), sequence (P00533 25-1210): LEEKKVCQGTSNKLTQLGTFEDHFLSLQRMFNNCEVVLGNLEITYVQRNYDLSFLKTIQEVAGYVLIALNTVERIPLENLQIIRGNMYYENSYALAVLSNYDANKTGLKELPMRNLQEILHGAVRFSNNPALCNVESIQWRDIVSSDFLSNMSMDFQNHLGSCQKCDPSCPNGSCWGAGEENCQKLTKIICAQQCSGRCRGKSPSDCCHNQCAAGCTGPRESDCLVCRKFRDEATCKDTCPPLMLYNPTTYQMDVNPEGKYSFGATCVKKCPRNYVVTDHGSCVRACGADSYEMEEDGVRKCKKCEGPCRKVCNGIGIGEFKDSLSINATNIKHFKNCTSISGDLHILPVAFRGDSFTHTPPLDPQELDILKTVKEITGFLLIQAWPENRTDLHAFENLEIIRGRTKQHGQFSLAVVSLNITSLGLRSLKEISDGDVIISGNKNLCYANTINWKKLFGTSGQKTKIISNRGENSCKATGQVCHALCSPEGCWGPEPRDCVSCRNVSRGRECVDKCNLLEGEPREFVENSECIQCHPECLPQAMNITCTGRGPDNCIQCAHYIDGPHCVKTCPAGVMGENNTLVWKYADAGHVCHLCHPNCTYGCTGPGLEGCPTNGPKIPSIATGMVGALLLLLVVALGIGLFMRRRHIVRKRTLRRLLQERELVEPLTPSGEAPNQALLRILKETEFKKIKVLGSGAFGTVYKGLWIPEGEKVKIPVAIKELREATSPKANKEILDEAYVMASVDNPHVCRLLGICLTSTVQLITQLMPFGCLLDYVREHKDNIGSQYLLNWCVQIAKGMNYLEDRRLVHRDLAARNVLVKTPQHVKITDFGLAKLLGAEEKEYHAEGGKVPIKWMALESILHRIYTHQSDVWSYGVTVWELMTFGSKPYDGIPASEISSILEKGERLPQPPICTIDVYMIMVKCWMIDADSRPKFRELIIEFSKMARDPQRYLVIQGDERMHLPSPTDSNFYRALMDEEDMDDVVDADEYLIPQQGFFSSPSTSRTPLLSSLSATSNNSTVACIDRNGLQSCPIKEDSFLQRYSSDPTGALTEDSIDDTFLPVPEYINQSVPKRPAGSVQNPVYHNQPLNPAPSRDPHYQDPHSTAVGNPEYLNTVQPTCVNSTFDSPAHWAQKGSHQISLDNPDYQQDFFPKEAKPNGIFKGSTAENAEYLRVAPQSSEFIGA

Molecule	IC50 (A549 cells)	IC50 (MCF-7 cells; [4])	IC50 (HeLa cells)	IC50 (HepG2 cells)	CC50 [1]	IC50 [2, 5]	further results
Cc1ccc(C2=NN(C3=NC(=O)CS3)C(c3ccc(Br)cc3)C2)cc1 (centres unmarked) [b]	–	–	–	–	–	–	IC50 (EGFR; reported compounds of Figure 1): 0.24 µM
COc1ccc(/C=N/NC(=O)c2ccc(N3N=C(c4cccc(C)c4)CC3c3ccc4ccccc4c3)cc2)cc1 (centres unmarked) [Compound H19, (E)-N′-(4-Methoxybenzylidene)-4-(5-(naphthalen-2-yl)-3-(m-tolyl)-4,5-dihydro-1H-pyrazol-1-yl)benzo-hydrazide]	2.24 µM	2.45 µM	1.19 µM	3.26 µM	92.6 µM	1.25 µM	–
COc1cccc(/C=N/NC(=O)c2ccc(N3N=C(c4cccc(C)c4)CC3c3ccc4ccccc4c3)cc2)c1 (centres unmarked) [Compound H3, (E)-N′-(3-Methoxybenzylidene)-4-(5-(naphthalen-2-yl)-3-(m-tolyl)-4,5-dihydro-1H-pyrazol-1-yl)benzo-hydrazide]	3.02 µM	2.89 µM	2.45 µM	3.54 µM	92.3 µM	2.12 µM	–
COc1ccc(C2CC(c3ccc(C)c(C)c3)=NN2C(N)=S)cc1 (centres unmarked) [a]	–	–	–	–	–	–	IC50 (EGFR; reported compounds of Figure 1): 0.07 µM
Cc1ccc(C2=NN(C3=NC(=O)CS3)C(c3ccc4ccccc4c3)C2)cc1C (centres unmarked) [Compound e]	–	–	–	–	–	–	IC50 (EGFR; reported compound of Figure 1): 0.12 µM
(E)-4-(3-(4-Ethylphenyl)-5-(naphthalen-2-yl)-4,5-dihydro-1H-pyrazol-1-yl)-N′-(3-methoxybenzylidene)-benzohydrazide [Compound H5]	5.49 µM	7.72 µM	8.71 µM	6.16 µM	92.5 µM	–	–
Cc1ccc(C2=NN(c3ncc(-c4ccc(Cl)cc4)s3)C(c3ccc(F)cc3)C2)cc1C (centres unmarked) [c]	–	–	–	–	–	–	IC50 (EGFR; reported compounds of Figure 1): 0.06 µM
(E)-N′-(3-Methoxybenzylidene)-4-(3-(4-methoxyphenyl)-5-(naphthalen-2-yl)-4,5-dihydro-1H-pyrazol-1-yl)-benzohydrazide [Compound H6]	8.32 µM	10.2 µM	13.2 µM	11.5 µM	81.8 µM	–	–
COc1ccc(/C=N/NC(=O)c2ccc(N3N=C(c4ccccc4C)CC3c3ccc4ccccc4c3)cc2)cc1 (centres unmarked) [Compound H18, (E)-N′-(4-Methoxybenzylidene)-4-(5-(naphthalen-2-yl)-3-(o-tolyl)-4,5-dihydro-1H-pyrazol-1-yl)benzo-hydrazide]	1.22 µM	1.63 µM	0.78 µM	0.56 µM	90.6 µM	0.48 µM	–
COc1ccc(/C=N/NC(=O)c2ccc(N3N=C(c4ccccc4)CC3c3ccc4ccccc4c3)cc2)cc1 (centres unmarked) [Compound H17, (E)-N′-(4-Methoxybenzylidene)-4-(5-(naphthalen-2-yl)-3-phenyl-4,5-dihydro-1H-pyrazol-1-yl)benzo-hydrazide]	13.3 µM	18.4 µM	20.7 µM	26.7 µM	94.2 µM	7.89 µM	–
CC(=O)N1N=C(c2ccc(C(F)(F)F)cc2)CC1c1ccc(C(=O)OCC(C)n2c([N+](=O)[O-])cnc2C)cc1 (centres unmarked) [d]	–	–	–	–	–	–	IC50 (EGFR; reported compounds of Figure 1): 0.26 µM
CCOc1ccc(C2=NN(c3ccc(C(=O)N/N=C/c4cccc(OC)c4)cc3)C(c3ccc4ccccc4c3)C2)cc1 (centres unmarked) [Compound H8, (E)-4-(3-(4-Ethoxyphenyl)-5-(naphthalen-2-yl)-4,5-dihydro-1H-pyrazol-1-yl)-N′-(3-methoxybenzylidene)-benzohydrazide]	–	–	–	–	–	–	IC50 (A549 cells; Homo sapiens): 10.7 µM; IC50 (MCF-7 cells; [6]): 15.9 µM; IC50 (HeLa cells; Homo sapiens): 17.1 µM; IC50 (HepG2 cells; Homo sapiens): 19.8 µM; CC50 at 24 h [3]: 79.7 µM; melting point: 233 to 235 °C; IC50 [2]: 7.2 µM
COc1cccc(/C=N/NC(=O)c2ccc(N3N=C(c4ccc(Cl)cc4)CC3c3ccc4ccccc4c3)cc2)c1 (centres unmarked) [Compound H14, (E)-4-(3-(4-Chlorophenyl)-5-(naphthalen-2-yl)-4,5-dihydro-1H-pyrazol-1-yl)-N′-(3-methoxybenzylidene)-benzohydrazide]	–	–	–	–	–	–	IC50 (A549 cells; Homo sapiens): 30.1 µM; IC50 (MCF-7 cells; [6]): 42.5 µM; IC50 (HeLa cells; Homo sapiens): 37.4 µM; IC50 (HepG2 cells; Homo sapiens): 40.2 µM; CC50 at 24 h [3]: 90.1 µM; melting point: 236 to 238 °C; IC50 [2]: 10.3 µM
COc1ccc(/C=N/NC(=O)c2ccc(N3N=C(c4ccc(F)cc4)CC3c3ccc4ccccc4c3)cc2)cc1 (centres unmarked) [Compound H27, (E)-4-(3-(4-Fluorophenyl)-5-(naphthalen-2-yl)-4,5-dihydro-1H-pyrazol-1-yl)-N'-(4-methoxybenzylidene)-benzohydrazide]	–	–	–	–	–	–	IC50 (A549 cells; Homo sapiens): 44.1 µM; IC50 (MCF-7 cells; [6]): 59 µM; IC50 (HeLa cells; Homo sapiens): 54.2 µM; IC50 (HepG2 cells; Homo sapiens): 62.9 µM; CC50 at 24 h [3]: 89.4 µM; melting point: 236 to 238 °C; IC50 [2]: 13.8 µM
COc1cccc(/C=N/NC(=O)c2ccc(N3N=C(c4ccccc4)CC3c3ccc4ccccc4c3)cc2)c1 (centres unmarked) [Compound H1, (E)-N′-(3-Methoxybenzylidene)-4-(5-(naphthalen-2-yl)-3-phenyl-4,5-dihydro-1H-pyrazol-1-yl)benzo-hydrazide]	14.5 µM	21 µM	22.5 µM	28.8 µM	98.6 µM	8.47 µM	–
COc1cccc(/C=N/NC(=O)c2ccc(N3N=C(c4ccccc4C)CC3c3ccc4ccccc4c3)cc2)c1 (centres unmarked) [Compound H2, (E)-N′-(3-Methoxybenzylidene)-4-(5-(naphthalen-2-yl)-3-(o-tolyl)-4,5-dihydro-1H-pyrazol-1-yl)benzo-hydrazide]	1.41 µM	1.52 µM	0.6 µM	0.67 µM	87.5 µM	0.65 µM	–
(E)-N′-(4-Methoxybenzylidene)-4-(3-(4-methoxyphenyl)-5-(naphthalen-2-yl)-4,5-dihydro-1H-pyrazol-1-yl)-benzohydrazide [Compound H22]	7.12 µM	9.69 µM	12.3 µM	10.5 µM	84.7 µM	–	–
(E)-4-(3-(4-Ethylphenyl)-5-(naphthalen-2-yl)-4,5-dihydro-1H-pyrazol-1-yl)-N′-(4-methoxybenzylidene)-benzohydrazide [Compound H21]	4.54 µM	6.33 µM	7.93 µM	5.06 µM	82.6 µM	–	–
COc1ccc(/C=N/NC(=O)c2ccc(N3N=C(c4ccc(Cl)cc4)CC3c3ccc4ccccc4c3)cc2)cc1 (centres unmarked) [Compound H30, (E)-4-(3-(4-Chlorophenyl)-5-(naphthalen-2-yl)-4,5-dihydro-1H-pyrazol-1-yl)-N′-(4-methoxybenzylidene)-benzohydrazide]	–	–	–	–	–	–	IC50 (A549 cells; Homo sapiens): 28.6 µM; IC50 (MCF-7 cells; [6]): 40.4 µM; IC50 (HeLa cells; Homo sapiens): 35.3 µM; IC50 (HepG2 cells; Homo sapiens): 38.2 µM; CC50 at 24 h [3]: 88.5 µM; melting point: 237 to 239 °C; IC50 [2]: 10 µM
COc1cccc(/C=N/NC(=O)c2ccc(N3N=C(c4ccc(C)cc4)CC3c3ccc4ccccc4c3)cc2)c1 (centres unmarked) [Compound H4, (E)-N′-(3-Methoxybenzylidene)-4-(5-(naphthalen-2-yl)-3-(p-tolyl)-4,5-dihydro-1H-pyrazol-1-yl)benzo-hydrazide]	0.43 µM	0.69 µM	0.45 µM	0.51 µM	98.8 µM	0.23 µM	–
